Experimental data published in the supplement of paper PMC13380429.

Columns and labels:
[1] = tested on: A549-ACE2 infected with SARS-CoV-2; experiment: cell count relative to DMSO; higher = less toxic; settings: 24 h
A549-ACE2 [2] = experiment: drug-induced phospholipidosis relative to tamoxifen; higher = more phospholipidosis
Caco-2 [3] = experiment: drug sensitivity score (DSS) for viability; higher = more toxic; extreme values may be limits of the assay; settings: 72 h
HepG2 [4] = experiment: as above; settings: 72 h
Calu-3 [5] = experiment: as above; settings: 72 h
U2OS [6] = experiment: as above; settings: 72 h
[7] = tested on: A549-ACE2 infected with SARS-CoV-2; experiment: SARS-CoV-2 infection rate relative to DMSO; higher = more infection; settings: 24 h
Caco-2 [8] = experiment: relative viability EC50 (midpoint between 100% and the lowest measured viability); higher = less toxic; settings: 72 h
HepG2 [9] = experiment: as above; settings: 72 h
Calu-3 [10] = experiment: as above; settings: 72 h
U2OS [11] = experiment: as above; settings: 72 h
Caco-2 [12] = experiment: cell viability relative to DMSO; higher = less toxic; settings: 72 h
HepG2 [13] = experiment: as above; settings: 72 h
Calu-3 [14] = experiment: as above; settings: 72 h
U2OS [15] = experiment: as above; settings: 72 h
[16] = tested on: A549-ACE2 infected with SARS-CoV-2; experiment: morphology score (similarity to uninfected cells); higher = more like uninfected cells; settings: 24 h
Vero E6 [17] = experiment: drug sensitivity score (DSS) for viability; higher = more toxic; extreme values may be limits of the assay; settings: 72 h
Vero E6 [18] = experiment: relative viability EC50 (midpoint between 100% and the lowest measured viability); higher = less toxic; settings: 72 h
Vero E6 [19] = experiment: cell viability relative to DMSO; higher = less toxic; settings: 72 h
A549-ACE2 [20] = experiment: phospholipidosis EC50; higher = less potent phospholipidosis inducer

OCCN1C[C@H](O)[C@@H](O)[C@H](O)[C@H]1CO [miglitol]
Settings | SARS-CoV-2 infection rate, [7] [%] | cell count, [1] [%] | cell viability, Caco-2 [12] [%] | cell viability, Calu-3 [14] [%] | cell viability, HepG2 [13] [%] | cell viability, U2OS [15] [%] | morphology score, [16]
1 nM | – | – | 98.8 | 97.8 | 94.6 | 105 | –
10 nM | – | – | 99.2 | 95.7 | 114 | 99 | –
100 nM | – | – | 96.1 | 95.1 | 89.6 | 102 | –
0.3 µM | 94 | 106 | – | – | – | – | 0.36
1000 nM | – | – | 101 | 110 | 103 | 98.5 | –
3 µM | 102 | 100 | – | – | – | – | 0.01
10 µM | 103 | 100 | – | – | – | – | 0.02
10000 nM | – | – | 94.7 | 96.2 | 101 | 103 | –
30 µM | 111 | 89 | – | – | – | – | -0.07

drug-induced phospholipidosis [%], A549-ACE2 [2]
Settings | 0.3 µM | 0.833333 µM | 3.33333 µM | 6.66667 µM | 10 µM | 30 µM
24 h | 3.38 | -3.48 | -1.06 | -1.04 | -2.08 | -1.27
48 h | 2.53 | -2.84 | 1.36 | 1.25 | 2.47 | 2.29
72 h | 3.37 | -2.2 | 1.06 | -0.466 | 0.978 | 2.7

Settings | drug sensitivity score | relative viability EC50 [µM]
Caco-2 [3] | 0 | –
Caco-2 [8] | – | > 10
Calu-3 [5] | 0 | –
Calu-3 [10] | – | > 10
HepG2 [4] | 0 | –
HepG2 [9] | – | > 10
U2OS [6] | 0 | –
U2OS [11] | – | > 10

c1cnc(N2CCN(Cc3ccc4c(c3)OCO4)CC2)nc1 [piribedil]
Settings | SARS-CoV-2 infection rate, [7] [%] | cell count, [1] [%] | cell viability, Caco-2 [12] [%] | cell viability, Calu-3 [14] [%] | cell viability, HepG2 [13] [%] | cell viability, U2OS [15] [%] | cell viability, Vero E6 [19] [%] | morphology score, [16]
1 nM | – | – | 106 | 110 | 98.9 | 104 | 100 | –
10 nM | – | – | 96.7 | 98 | 112 | 98.5 | 105 | –
100 nM | – | – | 95.8 | 99.3 | 98.9 | 103 | 100 | –
0.3 µM | 109 | 98 | – | – | – | – | – | -0.23
1000 nM | – | – | 92.9 | 89.5 | 107 | 98 | 98.1 | –
3 µM | 104 | 96 | – | – | – | – | – | -0.1
10 µM | 99 | 97 | – | – | – | – | – | -0.05
10000 nM | – | – | 90.3 | 102 | 102 | 99.9 | 94.4 | –
30 µM | 88 | 104 | – | – | – | – | – | 0.26

drug-induced phospholipidosis [%], A549-ACE2 [2]
Settings | 0.3 µM | 0.833333 µM | 3.33333 µM | 6.66667 µM | 10 µM | 30 µM
24 h | 0.73 | -0.78 | -1.88 | -1.98 | -0.73 | 4.07
48 h | 1.04 | -0.48 | -0.16 | 0.15 | 0.48 | 5.06
72 h | 3.05 | -0.292 | -0.287 | 2.2 | 1.92 | 7.77

Settings | drug sensitivity score | relative viability EC50 [µM]
Caco-2 [3] | 0 | –
Caco-2 [8] | – | > 10
Calu-3 [5] | 0 | –
Calu-3 [10] | – | > 10
HepG2 [4] | 0 | –
HepG2 [9] | – | > 10
U2OS [6] | 0 | –
U2OS [11] | – | > 10
Vero E6 [17] | 0 | –
Vero E6 [18] | – | > 10

CNCC[C@H](Oc1cccc2ccccc12)c1cccs1 [duloxetine]
Settings | SARS-CoV-2 infection rate [%] | cell count [%] | cell viability [%] | morphology score | phospholipidosis EC50 [µM]
A549-ACE2 [20], 24 h | – | – | – | – | 9.15
A549-ACE2 [20], 48 h | – | – | – | – | 9.16
A549-ACE2 [20], 72 h | – | – | – | – | 15.6
Caco-2 [12], 1 nM | – | – | 110 | – | –
Caco-2 [12], 10 nM | – | – | 100 | – | –
Caco-2 [12], 100 nM | – | – | 97.7 | – | –
Caco-2 [12], 1000 nM | – | – | 111 | – | –
Caco-2 [12], 10000 nM | – | – | 95.9 | – | –
Calu-3 [14], 1 nM | – | – | 103 | – | –
Calu-3 [14], 10 nM | – | – | 97.1 | – | –
Calu-3 [14], 100 nM | – | – | 92.4 | – | –
Calu-3 [14], 1000 nM | – | – | 90.9 | – | –
Calu-3 [14], 10000 nM | – | – | 78.8 | – | –
HepG2 [13], 1 nM | – | – | 96 | – | –
HepG2 [13], 10 nM | – | – | 102 | – | –
HepG2 [13], 100 nM | – | – | 99.4 | – | –
HepG2 [13], 1000 nM | – | – | 101 | – | –
HepG2 [13], 10000 nM | – | – | 88.2 | – | –
Vero E6 [19], 1 nM | – | – | 106 | – | –
Vero E6 [19], 10 nM | – | – | 100 | – | –
Vero E6 [19], 100 nM | – | – | 101 | – | –
Vero E6 [19], 1000 nM | – | – | 93.7 | – | –
Vero E6 [19], 10000 nM | – | – | 91 | – | –
[1], 0.3 µM | – | 101 | – | – | –
[1], 3 µM | – | 100 | – | – | –
[1], 10 µM | – | 119 | – | – | –
[1], 30 µM | – | 119 | – | – | –
[7], 0.3 µM | 104 | – | – | – | –
[7], 3 µM | 94 | – | – | – | –
[7], 10 µM | 37 | – | – | – | –
[7], 30 µM | 9 | – | – | – | –
[16], 0.3 µM | – | – | – | 0.09 | –
[16], 3 µM | – | – | – | 0.1 | –
[16], 10 µM | – | – | – | 0.8 | –
[16], 30 µM | – | – | – | 0.78 | –

drug-induced phospholipidosis [%], A549-ACE2 [2]
Settings | 0.3 µM | 0.833333 µM | 3.33333 µM | 6.66667 µM | 10 µM | 30 µM
24 h | 3.9 | 1.59 | 17.6 | 53.6 | 65.6 | 111
48 h | 2.99 | -2.35 | 15.6 | 55.1 | 61.6 | 109
72 h | 5.95 | 2.92 | 12.5 | 44.6 | 51.8 | 110

Settings | drug sensitivity score | relative viability EC50 [µM]
Caco-2 [3] | 0 | –
Caco-2 [8] | – | > 10
Calu-3 [5] | 1.3 | –
Calu-3 [10] | – | > 10
HepG2 [4] | 0 | –
HepG2 [9] | – | > 10
Vero E6 [17] | 0 | –
Vero E6 [18] | – | > 10

O=Nc1ccc(O)c2ncccc12 [NSC-3852]
Settings | SARS-CoV-2 infection rate, [7] [%] | cell count, [1] [%] | cell viability, Caco-2 [12] [%] | cell viability, HepG2 [13] [%] | cell viability, U2OS [15] [%] | cell viability, Vero E6 [19] [%] | morphology score, [16]
1 nM | – | – | 86.2 | 103 | 93.5 | 99.8 | –
10 nM | – | – | 101 | 89.6 | 99.5 | 102 | –
100 nM | – | – | 98.5 | 101 | 96.2 | 98.4 | –
0.3 µM | 106 | 97 | – | – | – | – | -0.15
1000 nM | – | – | 81.6 | 77.7 | 70.2 | 71.5 | –
3 µM | 96 | 76 | – | – | – | – | -0.09
10 µM | 48 | 63 | – | – | – | – | 0.41
10000 nM | – | – | 9.2 | 33 | 7.2 | 30.1 | –
30 µM | 14 | 41 | – | – | – | – | 0.64

drug-induced phospholipidosis [%], A549-ACE2 [2]
Settings | 0.3 µM | 0.833333 µM | 3.33333 µM | 6.66667 µM | 10 µM
24 h | 0.34 | -0.2 | 2.51 | 14.6 | 10.9
48 h | 3.9 | 1.44 | – | – | –
72 h | 3.53 | 1.53 | – | – | –

Settings | drug sensitivity score | relative viability EC50 [µM]
Caco-2 [3] | 8 | –
Caco-2 [8] | – | 1.73
HepG2 [4] | 6.9 | –
HepG2 [9] | – | 1.32
U2OS [6] | 9.3 | –
U2OS [11] | – | 1.37
Vero E6 [17] | 7.5 | –
Vero E6 [18] | – | 1.18
